Test systems include SF-268; UACC-257; SK-MEL-28; SNB-19; OVCAR-3; 786-0; SF-295; SK-MEL-2; KM12; TK-10; CAKI-1; UACC-62; EKVX; NCI/ADR-RES; OVCAR-8; RPMI-8226; RXF 393; MCF7; A498; SR.
Holding throughout (experiment): inhibition of tumour cell growth, NCI panel, 48 h

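96-well plates; 48 h exposure; 5 concentrations. Endpoints by linear interpolation between flanking doses. Not reached: highest tested concentration assigned. Here, GI50 denotes the concentration required for 50% inhibition of growth.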 Calls of active or inactive are those of the source. No stated cut-off is given here; in the data, active = GI50 up to about 1.1 µM and inactive = higher.

Take `O=C(NC(Cc1ccccc1)(Cc1ccc(O)cn1)C(=O)O)c1ccccc1` (stereo not given): the GI50 in the assay with SF-268 was > 100 µM (inactive); in the assay on UACC-257 it was > 100 µM (inactive); with SK-MEL-28 it was > 100 µM (inactive); with SNB-19 it was > 100 µM (inactive); in the assay with OVCAR-3, 63 µM (inactive); in the assay with 786-0, > 100 µM (inactive). Also, the GI50 in the assay on SF-295 is 92 µM (inactive); in the assay with SK-MEL-2, > 100 µM (inactive); with KM12 it was > 100 µM (inactive); with TK-10, > 100 µM (inactive); in the assay with CAKI-1, > 100 µM (inactive); in the assay with UACC-62, > 100 µM (inactive). Besides, the GI50 in the assay with EKVX was 55.6 µM (inactive); with NCI/ADR-RES it was > 100 µM (inactive); in the assay on OVCAR-8, > 100 µM (inactive); in the assay with RPMI-8226 it was 49.3 µM (inactive); in the assay on RXF 393, > 100 µM (inactive).
For `COc1ccc2c(c1)nc1n2C(c2c(Cl)cccc2Cl)SC1` (stereo not given), the GI50 with SF-268 was 20 µM (inactive); in the assay on UACC-257 it was 37.8 µM (inactive); in the assay on SK-MEL-28, 25.9 µM (inactive); with MCF7 it was 5.68 µM (inactive); in the assay on SNB-19 it was > 33.5 µM (inactive); with OVCAR-3, > 20.5 µM (inactive). Also, the GI50 in the assay on 786-0 was 21.3 µM (inactive); in the assay on SF-295, 5.71 µM (inactive); in the assay on SK-MEL-2 it was > 20.7 µM (inactive); with KM12, 12.4 µM (inactive); with TK-10, > 58.6 µM (inactive); in the assay on CAKI-1, > 60.7 µM (inactive). Moreover, the GI50 was 18.4 µM (inactive) with UACC-62; > 64.1 µM (inactive) in the assay on EKVX; 4.12 µM (inactive) with NCI/ADR-RES; > 61 µM (inactive) in the assay on OVCAR-8; 46.5 µM (inactive) in the assay on A498; > 23.5 µM (inactive) in the assay with RPMI-8226.
Consider `CN(C)CCCNc1ccnc2cccc([N+](=O)[O-])c12`, for which the GI50 with SF-268 was 16.4 µM (inactive); with UACC-257 it was 19.1 µM (inactive); with SK-MEL-28, 14.3 µM (inactive); with MCF7, 10.7 µM (inactive); in the assay with SNB-19 it was 19.6 µM (inactive); with OVCAR-3, 5.22 µM (inactive). The GI50 in the assay with 786-0 was 14.1 µM (inactive); with SF-295 it was 13.3 µM (inactive); with SK-MEL-2, 17.2 µM (inactive); in the assay on KM12, 12.8 µM (inactive); with TK-10, 15.7 µM (inactive); with CAKI-1 it was 13.3 µM (inactive). The GI50 is > 100 µM (inactive) with SR; 13.6 µM (inactive) with EKVX; 22 µM (inactive) with OVCAR-8; 15.5 µM (inactive) with A498; 27.3 µM (inactive) in the assay on RPMI-8226; 25.5 µM (inactive) in the assay on RXF 393.
Take `CN1CC[C@@H](c2c(O)cc(O)c3c(=O)cc(-c4ccccc4Cl)oc23)[C@@H](O)C1`: the GI50 is 0.0348 µM (active) in the assay on SF-268; 0.0552 µM (active) in the assay with UACC-257; 0.0455 µM (active) with SK-MEL-28; 0.0239 µM (active) with MCF7; 0.0407 µM (active) in the assay on SNB-19; 0.0414 µM (active) in the assay on 786-0. For the same molecule, the GI50 is 0.0604 µM (active) in the assay with SF-295; 0.0366 µM (active) with SK-MEL-2; 0.0303 µM (active) in the assay on KM12; 0.0538 µM (active) with TK-10; 0.0343 µM (active) in the assay on CAKI-1; 0.0273 µM (active) with UACC-62. The GI50 with SR is 0.0263 µM (active); in the assay on EKVX, 0.0885 µM (active); in the assay on OVCAR-8, 0.0401 µM (active); in the assay on A498, 0.0507 µM (active); in the assay with RPMI-8226, 0.0326 µM (active); with RXF 393 it was 0.0169 µM (active).
As for `C#CCOC(=O)C=[N+]=[N-]`, the GI50 with SF-268, in the assay with UACC-257, in the assay on SK-MEL-28, in the assay with MCF7, with SNB-19 and in the assay with OVCAR-3 was > 10 µM (inactive) each time. In addition, the GI50 in the assay on 786-0, in the assay with SF-295, in the assay on SK-MEL-2, with KM12, with UACC-62 and with SR was > 10 µM (inactive) each time. In addition, the GI50 in the assay on EKVX is > 10 µM (inactive); with OVCAR-8, > 10 µM (inactive); in the assay with A498, 6.92 µM (inactive); in the assay on RPMI-8226, > 10 µM (inactive); in the assay with RXF 393, > 10 µM (inactive).
For the molecule `Fc1ccccc1-c1nn2c(C34CC5CC(CC(C5)C3)C4)nnc2s1`, the GI50 with SF-268, with UACC-257, in the assay with SK-MEL-28, with SNB-19, in the assay on OVCAR-3 and with 786-0 was > 100 µM (inactive) throughout. Moreover, the GI50 with SF-295, with SK-MEL-2, in the assay with CAKI-1, with UACC-62, with SR and in the assay with EKVX was > 100 µM (inactive) each time. The GI50 in the assay on NCI/ADR-RES, in the assay on OVCAR-8, in the assay with A498, with RPMI-8226 and with RXF 393 was > 100 µM (inactive) throughout.
In the case of `C=C1C(=O)OC2(C)CCC1CC1OC1(C)CCC=C(C)CCC2O` (stereo not given), the GI50 in the assay on SF-268, in the assay on UACC-257, in the assay on SK-MEL-28, in the assay on MCF7, in the assay on SNB-19 and with OVCAR-3 was > 100 µM (inactive) each time. Moreover, the GI50 with 786-0 is > 100 µM (inactive); in the assay on SF-295, > 100 µM (inactive); in the assay with SK-MEL-2, 75 µM (inactive); with KM12 it was > 100 µM (inactive); with TK-10, > 100 µM (inactive); in the assay on CAKI-1, > 100 µM (inactive). Besides, the GI50 with UACC-62 is 61.9 µM (inactive); in the assay with EKVX, > 100 µM (inactive); with NCI/ADR-RES, > 100 µM (inactive); in the assay on OVCAR-8, > 100 µM (inactive); in the assay on A498, 35.9 µM (inactive); with RPMI-8226, 53 µM (inactive).
For `CNc1nc(SC)nc2c1c(N)nn2C`, the GI50 with SF-268, in the assay on UACC-257, in the assay with SK-MEL-28, with SNB-19, in the assay with OVCAR-3 and in the assay with 786-0 was > 100 µM (inactive) in each case. Also, the GI50 with SF-295, in the assay with SK-MEL-2, with KM12, in the assay with TK-10, in the assay with CAKI-1 and with UACC-62 was > 100 µM (inactive) in each case. Besides, the GI50 in the assay on NCI/ADR-RES is > 100 µM (inactive); in the assay with OVCAR-8, > 100 µM (inactive); in the assay on A498, 99.5 µM (inactive); in the assay on RPMI-8226 it was > 100 µM (inactive); with RXF 393, > 100 µM (inactive).

(Values after ChEMBL document CHEMBL1201862, “PubChem BioAssay data set” (2004).)
